Experimental data published in patent US20090252674A1, “Tripodal Ligands with the Coordinating Motifs K2 -BH2 or K3 -BH3 Relevant for Biomedical Applications of Organometallic Complexes” (Mallinckrodt Inc., priority 2005, published 2009).

Assay: HPLC analysis of the 6a preparation at different intervals of time (stability under physiologic conditions)
Format: physicochemical
Settings: PBS, pH 7.4
Method: In a nitrogen-purged glass vial, 100 μL of a 2.5×10^−2 M aqueous solution of ligand 1 were added to 400 μL (7.5 mCi) of the organometallic precursor fac−[^99mTc(OH2)3(CO)3]^+, and the mixture was incubated at room temperature for 30 min. After this time, complex 6a has been obtained in 90% yield, as checked by gradient HPLC analysis (from 100% aqueous 0.1% CF3COOH solution to 100% CH3CN) using a Nucleosil column (10:m, 250 mm×4 mm). The chemical identity of 6a was confirmed by comparing its HPLC chromatogram with the HPLC profile of the analogue Re complex (6) (Retention time: Re, 25.78 min; ^99mTc, 26.28 min). HPLC analysis of the preparation of 6a, at different intervals of time, has shown that 6a is stable under physiologic conditions (PBS, pH 7.4), at least for a period of 24 h.

Substance: [^99mTc (κ^3-H3B(Tim^Me))(CO)3] [complex 6a]
- stable under physiologic conditions, period: ≥ 24 h
